The record followed here is patent US11168052B2, “Carbamate derivative compounds, processes for preparing them and their uses” (BIO-PHARM SOLUTIONS CO., LTD., priority 2016, dated 2021).

In this test the test system is corneally kindled rats. Description: Corneal kindling (CK) rat model. In kind it is in vivo, Sprague-Dawley rats. Particulars: po. The text has this: Male Sprague-Dawley rats (purchased from Orient Bio Inc. Korea) of body weight 85-100 g were used for these studies. The MES test using the electroshock seizure apparatus designed by Rodent Shocker Type221 (Hugo Sachs Elektronik, Germany). The kindled rat models were electrically stimulated (8 mA, 60 Hz, 2 s, corneal electrodes) twice daily for 21 days until stage 5 seizure scored by Racine's scale (Racine, 1972) were evoked. The kindled rats were fasted and adapted to test condition, for at least 1 hour before the administration of test material. The drugs were administered orally (p.o.) in a volume of 4 μl/g body weight. The corneally kindled rat model test is a model for generalized […] seizures or bipolar disorder and identifies the compound which prevents seizure or bipolar disorder spread. The shock level was set at 8 mA, 60 Hz and the duration was set at 2 s. A drop of 0.9% saline was placed in each eye, the electrodes were placed over the eyes, and the shock was administered immediately. Pharmacological effects of the test materials were evaluated to compare the test groups (n=6) with a control group (n=6). Control group was administrated vehicle, only. The peak time was determined by administration test material's random dose for 0.5, 1, 2, 4 hour. The time that the most protect was defined peak time and ED50 was determined by other dose administration at peak time. […]

As to `NC(=O)O[C@@H]1CCc2cccc(Cl)c2[C@@H]1O` [Example 1, (1S, 2R)-8-chloro-1-hydroxy-1,2,3,4-tetrahydronaphthalen-2-yl carbamate], the ED50 (usually the dose at which the effect has come halfway, by size or by number of responders) was 7.5 mg/kg.
